Assay results from patent US7855208B2, “3, 9-diazabicyclo(3.3.1)non-3-yl-aryl methanone derivatives as nicotinic acetylcholine receptor agonists” (NeuroSearch A/S, priority 2006, dated 2010).

Biological target: T1, α7-subtype of nicotinic receptors (Rattus norvegicus, UniProt Q05941)
T1 construct: Cerebral cortices from male Wistar rats (150-250 g) are homogenised; from tissue; host or cells: rat cerebral cortex membrane homogenate
Test: In vitro inhibition of 3H-α-bungarotoxine binding in rat brain
Conditions: rat cerebral cortex homogenate, 3H-α-bungarotoxine 2 nM

T1 sequence (Q05941 23-502): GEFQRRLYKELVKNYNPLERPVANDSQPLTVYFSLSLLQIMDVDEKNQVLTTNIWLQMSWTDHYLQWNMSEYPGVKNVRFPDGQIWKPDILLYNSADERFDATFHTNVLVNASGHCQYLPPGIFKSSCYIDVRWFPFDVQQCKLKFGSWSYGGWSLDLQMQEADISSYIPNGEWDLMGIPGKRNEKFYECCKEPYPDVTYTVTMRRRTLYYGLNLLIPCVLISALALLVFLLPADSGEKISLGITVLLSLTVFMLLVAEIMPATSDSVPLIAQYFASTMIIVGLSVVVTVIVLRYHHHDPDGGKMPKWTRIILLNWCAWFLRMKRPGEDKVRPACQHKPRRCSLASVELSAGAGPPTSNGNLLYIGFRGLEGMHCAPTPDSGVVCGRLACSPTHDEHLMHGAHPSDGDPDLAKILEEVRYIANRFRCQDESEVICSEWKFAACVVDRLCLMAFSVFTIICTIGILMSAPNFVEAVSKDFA

| SMILES | IC50 |
| --- | --- |
| CN1C2CCCC1CN(C(=O)c1ccc(-c3ccc(N)cc3)o1)C2 [Compound B1] | 0.42 µM |

System: not given
Test: not given
Conditions: not given

| melting point | SMILES |
| --- | --- |
| 246 to 252 °C | CN1C2CCCC1CN(C(=O)c1ccc(-c3ccc(NC(=O)c4ccccc4)cc3)o1)C2.O=C(O)/C=C/C(=O)O |
| 154 to 161 °C | CCNC(=O)Nc1ccc(-c2ccc(C(=O)N3CC4CCCC(C3)N4C)o2)cc1.O=C(O)/C=C/C(=O)O |
| 263 °C | CN1C2CCCC1CN(C(=O)c1ccc(-c3ccc([N+](=O)[O-])cc3)o1)C2.Cl |
| 197 to 229 °C | CC(=O)Nc1ccc(-c2ccc(C(=O)N3CC4CCCC(C3)N4C)o2)cc1.O=C(O)/C=C/C(=O)O |

| SMILES | melting point |
| --- | --- |
| CN1C2CCCC1CN(C(=O)c1ccc(-c3ccc(N)cc3)o1)C2 [Compound B1] | 147 to 149 °C |
